# Laboratory results published in paper PMC10824666 (Nature Cancer, 2023).
# Read-outs that look alike come from different tables or passages of the source.
# Key:
# Test in all cases: biochemical
# Parameters in all cases: Eurofins DiscoverX kinase panel, competitive binding assay at 1 uM, percent of DMSO control
# Settings in all cases: competitive binding, percent of DMSO control
# c-MET = c-MET (Homo sapiens, UniProt P08581)
# Summary of the method: (§1)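 Single-point profiling at 1 µM compound in a competition-binding format against 96 kinases, read out as POC relative to control; n = 1.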
# EPHB3 = target: T1, EPHB3 (Homo sapiens, UniProt P54753)
# T1 sequence (P54753 1-998): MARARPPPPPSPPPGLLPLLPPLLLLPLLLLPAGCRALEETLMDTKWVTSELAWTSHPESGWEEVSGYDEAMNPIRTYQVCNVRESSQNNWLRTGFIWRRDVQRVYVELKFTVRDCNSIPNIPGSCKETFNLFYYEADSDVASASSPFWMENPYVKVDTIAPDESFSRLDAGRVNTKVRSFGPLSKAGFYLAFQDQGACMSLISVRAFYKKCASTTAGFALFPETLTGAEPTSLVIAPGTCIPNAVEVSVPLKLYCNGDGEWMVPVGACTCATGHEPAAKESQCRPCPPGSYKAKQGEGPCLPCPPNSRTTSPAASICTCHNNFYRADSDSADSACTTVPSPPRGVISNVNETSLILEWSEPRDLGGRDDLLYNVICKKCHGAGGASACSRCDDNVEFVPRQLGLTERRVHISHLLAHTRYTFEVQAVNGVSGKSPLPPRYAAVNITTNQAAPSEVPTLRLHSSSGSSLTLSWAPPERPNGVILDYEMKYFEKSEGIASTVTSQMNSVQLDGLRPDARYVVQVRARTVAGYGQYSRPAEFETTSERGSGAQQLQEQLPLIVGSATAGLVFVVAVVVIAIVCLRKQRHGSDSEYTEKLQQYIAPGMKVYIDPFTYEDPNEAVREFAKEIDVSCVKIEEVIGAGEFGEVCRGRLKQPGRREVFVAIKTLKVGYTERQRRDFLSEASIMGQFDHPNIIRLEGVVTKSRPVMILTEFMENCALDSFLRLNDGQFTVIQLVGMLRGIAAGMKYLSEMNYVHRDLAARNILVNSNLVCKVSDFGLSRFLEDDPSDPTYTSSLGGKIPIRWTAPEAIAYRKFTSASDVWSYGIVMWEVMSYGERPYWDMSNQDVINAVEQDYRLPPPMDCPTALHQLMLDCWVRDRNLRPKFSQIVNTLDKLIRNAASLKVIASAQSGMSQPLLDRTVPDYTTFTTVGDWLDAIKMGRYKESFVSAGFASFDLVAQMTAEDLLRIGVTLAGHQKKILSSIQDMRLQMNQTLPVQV
# Summary of the method: as §1
# MLTK = target: T2, MLTK (Homo sapiens, UniProt Q9NYL2)
# T2 construct: gene MAP3K20
# Summary of the method: as §1
# CLK4 = CLK4 (Homo sapiens, UniProt Q9HAZ1)
# Summary of the method: as §1
# MAPKAPK2 = MAPKAPK2 (Homo sapiens, UniProt P49137)
# Summary of the method: as §1
# NEK6 = NEK6 (Homo sapiens, UniProt Q9HC98)
# Summary of the method: as §1
# ERK2 = target: T3, ERK2 (Homo sapiens, UniProt P28482)
# T3 construct: gene MAPK1
# Summary of the method: as §1
# [1] = read-out: Kinome Profiling performed by Eurofins DiscoverX / AM-1882, 1.0 µM / POC
# [2] = read-out: Kinome Profiling performed by Eurofins DiscoverX / AM-0277, 1.0 µM / POC
# [3] = read-out: Kinome Profiling performed by Eurofins DiscoverX / AM-5308, 1.0 µM / POC
# MAPKAPK2, sequence (P49137 whole entry): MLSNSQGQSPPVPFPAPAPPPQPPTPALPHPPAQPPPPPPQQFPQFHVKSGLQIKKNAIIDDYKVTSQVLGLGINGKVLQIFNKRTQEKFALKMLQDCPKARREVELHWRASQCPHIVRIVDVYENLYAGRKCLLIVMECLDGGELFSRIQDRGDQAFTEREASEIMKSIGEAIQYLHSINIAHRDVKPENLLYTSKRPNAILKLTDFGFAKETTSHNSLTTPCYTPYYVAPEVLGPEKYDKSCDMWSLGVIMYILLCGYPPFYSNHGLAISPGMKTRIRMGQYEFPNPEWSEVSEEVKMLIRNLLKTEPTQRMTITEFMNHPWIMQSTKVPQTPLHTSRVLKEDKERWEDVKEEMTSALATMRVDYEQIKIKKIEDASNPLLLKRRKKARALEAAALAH
# T2 sequence (Q9NYL2 whole entry): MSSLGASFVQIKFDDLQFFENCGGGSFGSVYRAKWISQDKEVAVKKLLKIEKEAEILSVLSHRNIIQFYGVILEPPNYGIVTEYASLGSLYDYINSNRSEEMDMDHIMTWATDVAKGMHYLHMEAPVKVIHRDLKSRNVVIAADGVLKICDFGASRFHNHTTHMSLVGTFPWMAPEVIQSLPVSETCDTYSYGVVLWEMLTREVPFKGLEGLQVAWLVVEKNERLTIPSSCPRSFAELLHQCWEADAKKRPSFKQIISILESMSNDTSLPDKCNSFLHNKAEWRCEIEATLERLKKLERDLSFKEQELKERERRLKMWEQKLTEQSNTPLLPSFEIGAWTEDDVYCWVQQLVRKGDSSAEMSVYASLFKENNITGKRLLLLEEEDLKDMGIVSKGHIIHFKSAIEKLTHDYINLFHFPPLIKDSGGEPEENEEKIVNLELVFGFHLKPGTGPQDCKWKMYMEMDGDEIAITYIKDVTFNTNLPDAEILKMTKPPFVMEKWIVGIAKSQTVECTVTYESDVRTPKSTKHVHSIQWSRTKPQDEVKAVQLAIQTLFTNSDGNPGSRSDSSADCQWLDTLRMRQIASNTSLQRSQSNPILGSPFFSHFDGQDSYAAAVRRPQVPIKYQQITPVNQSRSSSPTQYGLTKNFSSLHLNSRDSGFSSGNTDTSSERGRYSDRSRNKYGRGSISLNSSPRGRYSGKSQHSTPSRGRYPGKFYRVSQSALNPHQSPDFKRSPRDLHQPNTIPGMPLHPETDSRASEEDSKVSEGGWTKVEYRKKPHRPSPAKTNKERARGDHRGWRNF
# T3 sequence (P28482 whole entry): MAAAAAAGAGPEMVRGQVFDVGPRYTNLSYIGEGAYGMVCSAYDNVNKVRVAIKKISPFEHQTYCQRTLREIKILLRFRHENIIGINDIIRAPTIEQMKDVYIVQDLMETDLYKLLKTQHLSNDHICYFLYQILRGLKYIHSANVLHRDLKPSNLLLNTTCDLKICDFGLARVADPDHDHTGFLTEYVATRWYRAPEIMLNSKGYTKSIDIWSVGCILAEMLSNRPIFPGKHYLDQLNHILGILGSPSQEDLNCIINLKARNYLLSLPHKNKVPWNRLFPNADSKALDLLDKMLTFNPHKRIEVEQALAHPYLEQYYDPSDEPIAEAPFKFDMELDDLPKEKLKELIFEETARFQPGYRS
# NEK6, sequence (Q9HC98 whole entry): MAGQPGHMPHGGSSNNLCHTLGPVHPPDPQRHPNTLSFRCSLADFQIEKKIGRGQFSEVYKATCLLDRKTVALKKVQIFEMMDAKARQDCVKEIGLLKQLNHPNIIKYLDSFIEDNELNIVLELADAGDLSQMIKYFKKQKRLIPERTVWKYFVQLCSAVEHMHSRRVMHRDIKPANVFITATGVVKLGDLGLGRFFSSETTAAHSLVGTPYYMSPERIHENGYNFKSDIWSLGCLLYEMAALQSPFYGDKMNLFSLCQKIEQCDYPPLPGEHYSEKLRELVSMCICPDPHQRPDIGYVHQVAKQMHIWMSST
# c-MET, sequence (P08581 whole entry): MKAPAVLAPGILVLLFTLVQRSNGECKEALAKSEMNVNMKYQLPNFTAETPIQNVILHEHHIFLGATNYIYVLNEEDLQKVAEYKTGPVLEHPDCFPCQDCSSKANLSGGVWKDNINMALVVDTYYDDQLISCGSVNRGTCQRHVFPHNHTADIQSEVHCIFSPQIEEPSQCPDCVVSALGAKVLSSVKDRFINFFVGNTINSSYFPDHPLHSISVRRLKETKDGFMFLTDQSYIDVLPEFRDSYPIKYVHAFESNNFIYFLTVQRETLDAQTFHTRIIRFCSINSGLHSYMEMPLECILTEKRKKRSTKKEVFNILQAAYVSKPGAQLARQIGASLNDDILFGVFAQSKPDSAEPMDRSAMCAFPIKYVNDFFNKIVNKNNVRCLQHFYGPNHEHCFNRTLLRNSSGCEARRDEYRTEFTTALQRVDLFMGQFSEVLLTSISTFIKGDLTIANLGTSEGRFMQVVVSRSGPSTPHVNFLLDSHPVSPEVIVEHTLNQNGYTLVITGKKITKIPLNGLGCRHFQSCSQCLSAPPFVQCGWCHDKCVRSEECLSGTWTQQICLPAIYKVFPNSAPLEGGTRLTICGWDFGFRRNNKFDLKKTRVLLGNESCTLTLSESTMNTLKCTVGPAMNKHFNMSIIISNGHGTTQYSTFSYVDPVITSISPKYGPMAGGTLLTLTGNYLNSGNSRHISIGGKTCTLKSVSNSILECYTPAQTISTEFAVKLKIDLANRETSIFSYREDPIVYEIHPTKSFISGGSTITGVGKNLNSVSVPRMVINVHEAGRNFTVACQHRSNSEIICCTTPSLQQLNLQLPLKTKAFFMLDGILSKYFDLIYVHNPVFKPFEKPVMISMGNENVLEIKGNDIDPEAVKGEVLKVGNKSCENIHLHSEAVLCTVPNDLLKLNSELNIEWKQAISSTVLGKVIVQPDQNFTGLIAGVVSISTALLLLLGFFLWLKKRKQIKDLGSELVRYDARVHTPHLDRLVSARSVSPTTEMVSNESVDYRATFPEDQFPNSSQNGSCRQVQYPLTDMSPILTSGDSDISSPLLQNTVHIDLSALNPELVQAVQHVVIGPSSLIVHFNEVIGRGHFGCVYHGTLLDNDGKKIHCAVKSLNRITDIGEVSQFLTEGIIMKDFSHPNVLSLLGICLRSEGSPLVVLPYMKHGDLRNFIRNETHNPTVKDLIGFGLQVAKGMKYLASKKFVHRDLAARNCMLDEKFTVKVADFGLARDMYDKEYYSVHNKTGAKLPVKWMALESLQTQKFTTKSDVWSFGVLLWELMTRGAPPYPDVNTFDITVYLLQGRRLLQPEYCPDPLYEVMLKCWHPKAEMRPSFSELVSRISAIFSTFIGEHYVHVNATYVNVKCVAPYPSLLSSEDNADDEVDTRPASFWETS
# CLK4, sequence (Q9HAZ1 whole entry): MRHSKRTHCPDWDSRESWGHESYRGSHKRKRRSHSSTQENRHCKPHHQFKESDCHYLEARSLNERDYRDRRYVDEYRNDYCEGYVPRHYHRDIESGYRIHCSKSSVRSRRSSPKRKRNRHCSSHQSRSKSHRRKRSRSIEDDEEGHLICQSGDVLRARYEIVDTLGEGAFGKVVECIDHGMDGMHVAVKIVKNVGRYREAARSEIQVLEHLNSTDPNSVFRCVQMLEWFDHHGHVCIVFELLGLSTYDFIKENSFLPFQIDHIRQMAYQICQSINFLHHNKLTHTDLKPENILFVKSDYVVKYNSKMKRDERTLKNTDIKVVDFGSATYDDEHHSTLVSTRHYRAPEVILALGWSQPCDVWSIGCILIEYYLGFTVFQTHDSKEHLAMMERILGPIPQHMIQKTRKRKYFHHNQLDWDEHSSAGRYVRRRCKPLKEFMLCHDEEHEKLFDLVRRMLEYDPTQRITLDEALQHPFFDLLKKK
compound,measurement,setting,value
CC(C)(C)NS(=O)(=O)c1cccc(NC(=O)c2ccc(S(=O)(=O)NC(C)(C)C)cc2N2CCC3(CC2)CC3)c1 [AM-1882],remaining activity at 1 µM,c-MET; [1],100%
same,remaining activity at 1 µM,EPHB3; [1],98%
same,remaining activity at 1 µM,MLTK; [1],84.5%
same,remaining activity at 1 µM,CLK4; [1],100%
same,remaining activity at 1 µM,MAPKAPK2; [1],95.5%
same,remaining activity at 1 µM,NEK6; [1],100%
same,remaining activity at 1 µM,ERK2; [1],100%
CC(C)(CO)Nc1ccc(C(=O)Nc2cccc(S(=O)(=O)C3CCCC3)c2)c(N2CCC3(CC2)CC3)n1 [AM-0277],remaining activity at 1 µM,c-MET; [2],89%
same,remaining activity at 1 µM,EPHB3; [2],87%
same,remaining activity at 1 µM,MLTK; [2],90%
same,remaining activity at 1 µM,CLK4; [2],97%
same,remaining activity at 1 µM,MAPKAPK2; [2],79%
same,remaining activity at 1 µM,NEK6; [2],94%
same,remaining activity at 1 µM,ERK2; [2],95%
C[C@@H]1CN(c2cccc(NC(=O)c3ccc(NS(=O)(=O)CCO)cc3N3CCC4(CC3)CC4)n2)CCO1 [AM-5308],remaining activity at 1 µM,c-MET; [3],92%
same,remaining activity at 1 µM,EPHB3; [3],44%
same,remaining activity at 1 µM,MLTK; [3],100%
same,remaining activity at 1 µM,CLK4; [3],100%
same,remaining activity at 1 µM,MAPKAPK2; [3],95%
same,remaining activity at 1 µM,NEK6; [3],95%
same,remaining activity at 1 µM,ERK2; [3],89%
